Reference: patent publication US8722849B2, “Polypeptides” (Novo Nordisk A/S, priority 2011, dated 2014)
Starred links: 1 amine or outer side, 2 acyl side, 3 side chain; linkers in the order of their positions; H or OH if unused. Positions of bridges follow the written chain, without caps; N, C: chain ends. Residues, ends and D or L forms follow the SMILES beside them. *: point of attachment. C20 diacid = O=C(O)CCCCCCCCCCCCCCCCCCC(=O)*; γGlu = O=C(O)[C@H](CCC(=O)[*:2])N[*:1]

Tests used:
[1] = target: T1, rat amylin 3(a) receptor (rat calcitonin(a) receptor + rat RAMP3) (Rattus norvegicus, UniProt P32214+Q9JJ73); test: Assay (II)b functional cAMP FlashPlate assay, rat amylin receptor; format: cell-based; details: Table 11
T1 construct: expressed in transfected cells; host or cells: BHK tk'ts 13
T1 sequence (P32214 25-479 isoform P32214-2 limits assumed): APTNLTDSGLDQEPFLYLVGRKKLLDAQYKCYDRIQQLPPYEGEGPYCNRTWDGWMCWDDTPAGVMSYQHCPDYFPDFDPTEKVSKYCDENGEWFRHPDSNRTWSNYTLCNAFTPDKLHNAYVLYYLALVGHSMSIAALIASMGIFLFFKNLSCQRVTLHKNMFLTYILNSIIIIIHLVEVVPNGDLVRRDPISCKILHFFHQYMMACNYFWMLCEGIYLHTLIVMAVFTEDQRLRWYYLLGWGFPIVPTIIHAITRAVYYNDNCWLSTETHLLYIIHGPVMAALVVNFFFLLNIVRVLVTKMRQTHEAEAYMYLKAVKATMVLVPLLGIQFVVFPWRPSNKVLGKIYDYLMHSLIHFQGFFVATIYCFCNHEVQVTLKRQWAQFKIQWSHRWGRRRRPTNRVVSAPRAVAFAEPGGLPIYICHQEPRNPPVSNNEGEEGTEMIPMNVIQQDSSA
T1 sequence (Q9JJ73 23-147 partner): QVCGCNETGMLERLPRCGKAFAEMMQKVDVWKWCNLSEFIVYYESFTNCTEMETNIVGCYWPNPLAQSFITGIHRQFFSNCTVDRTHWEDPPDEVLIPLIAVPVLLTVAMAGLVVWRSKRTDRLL
How it was run: (§1)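 cAMP accumulation in transiently transfected BHK tk'ts 13 cells, 100.000 cells/well, expressing rat calcitonin(a) receptor or its RAMP3 co-expression form (amylin 3(a)): 30 min stimulation with IBMX, 24 hours post-transfection. Readout by competition of cellular versus radiolabelled cAMP in FlashPlates, scintillation counted after 3 h.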

[2] = target: T2, rat calcitonin (a) receptor (Rattus norvegicus, UniProt P32214); test: Assay (II)b functional cAMP FlashPlate assay, rat calcitonin receptor; format: cell-based; details: Table 11; read-out: CTa receptor rat EC50
T2 construct: expressed in transfected cells; host or cells: BHK tk'ts 13
T2 sequence (P32214 25-479 isoform P32214-2 limits assumed): T1 sequence (P32214 25-479 isoform P32214-2 limits assumed)
How it was run: as §1

[3] = Assay (III) ThT fibrillation assay for physical stability; format: physicochemical; details: ThT fibrillation assay
How it was run: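 Freshly prepared formulations, pH-adjusted, with 1 μM ThT; four or eight replicates incubated at 37 °C under 960 rpm orbital shaking. Fluorescence (ex 444/em 485 nm) read every 20 min; […]. Peptide concentration measured by RP-HPLC before and after the run.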

EC50 [1]: 0.188 nM
EC50 [2]: 0.539 nM
ThT pH 4.0 lag time (h) [3]: 12.3 h
SMILES: CC[C@H](C)[C@H](NC(=O)[C@@H]1CCCN1C(=O)CNC(=O)[C@H](Cc1ccccc1)NC(=O)[C@H](CC(N)=O)NC(=O)[C@H](CC(N)=O)NC(=O)[C@H](CO)NC(=O)[C@H](CO)NC(=O)[C@H](Cc1c[nH]cn1)NC(=O)[C@H](Cc1c[nH]cn1)NC(=O)[C@H](CC(C)C)NC(=O)[C@H](Cc1ccccc1)NC(=O)[C@H](CCC(=O)O)NC(=O)[C@H](C)NC(=O)[C@H](CC(C)C)NC(=O)[C@H](CCCNC(=N)N)NC(=O)[C@H](CCC(N)=O)NC(=O)[C@@H](NC(=O)[C@H](C)NC(=O)[C@@H]1CSSC[C@H](NC(=O)[C@H](CCCCN)NC(=O)CC[C@H](NC(=O)CCCCCCCCCCCCCCCCCCC(=O)O)C(=O)O)C(=O)N[C@@H](CC(N)=O)C(=O)N[C@@H]([C@@H](C)O)C(=O)N[C@@H](C)C(=O)N[C@@H]([C@@H](C)O)C(=O)N1)[C@@H](C)O)C(=O)N[C@@H](CC(C)C)C(=O)N1CCC[C@H]1C(=O)N1CCC[C@H]1C(=O)N[C@H](C(=O)N[C@@H](CC(N)=O)C(=O)N[C@H](C(=O)NCC(=O)N[C@@H](CO)C(=O)N[C@@H](CC(N)=O)C(=O)N[C@H](C(=O)N[C@@H](Cc1ccc(O)cc1)C(N)=O)[C@@H](C)O)C(C)C)[C@@H](C)O [Example 27, N-alpha-[(S)-4-Carboxy-4-(19-carboxynonadecanoylamino)butyryl]-[Glu14,His17]-pramlintide] ({C20 diacid-γGlu}-KCNTATCATQRLAEFLHHSSNNFGPILPPTNVGSNTY-NH2; disulfide 2-7 (inferred))
